Assay results: US20100266604A1, “USE OF TAM RECEPTOR INHIBITORS AS IMMUNOENHANCERS AND TAM ACTIVATORS AS IMMUNOSUPPRESSORS” (The Salk Institute for Biological Studies, priority 2007, published 2010)

Experiments:
Format in all cases: cell-based, mouse
[1] = tested on: TLR-induced cytokine production in DCs; experiment: DC activation assay: TLR-induced cytokine production (ELISA / ISRE luciferase reporter)
Protocol: Splenic DC or BM-DCs (1×10^6 cells/ml) were cultured overnight in serum-free medium (StemSpan, StemCell Technologies Inc.) in the presence of the indicated concentrations of LPS from Salmonella minnesota R595 Re (Alexis), CpG-ODN 1668 (TCCATGACGTTCCGATGCT; SEQ ID NO: 19; Integrated DNA Technologies) or Poly I:C (InvivoGen) alone or in the presence of murine recombinant Gas6 (R&D Systems) or murine recombinant Protein S (produced as described in Prasad et al., (2006) Mol Cell Neurosci 33:96-108). Cytokine production was quantified in cell-free supernatants by ELISA (ebioscience for IL-12, IL-6 and TNFα and PBL-biomedical for IFNα) or by a luciferase assay using a cell line containing an ISRE-responsive element luciferase reporter construct for Type I IFN (Jiang et al., (2005) Nat Immunol 6:565-570).

[2] = tested on: SOCS1 and SOCS3 mRNA in DCs; experiment: Q-PCR of SOCS1 and SOCS3 mRNA in DCs
Protocol: (§1) Splenic DCs (1×10^6 cells/ml) or BM-DCs (5×10^6 cells/ml) were cultured in serum-free medium and treated with the indicated concentrations of murine recombinant Gas6, murine recombinant Protein S, the TLR ligands indicated above, recombinant mouse IFNα (PBL Biomedical laboratories), recombinant mouse Axl-FC chimera (R&D), cyclohexamide (Sigma) or Actinomycin D (Sigma). Whole cell lysates and RNA extraction were performed as indicated below.
(§2) After stimulation, cells were harvested, and total RNA was isolated using the RNeasy mini kit (Qiagen). Reverse transcription was performed according to manufacturer instructions with RT Superscript III (Invitrogen). PCR reactions were performed on an ABI Prism 7700 Sequence Detection System using SYBRGreen PCR master mix (Applied Biosystems). Each reaction was normalized against the expression of β-actin or GAPDH. Analyses of dissociation curves were performed with SDS software (Applied Biosystems) to ensure the absence of nonspecific amplification. Q-PCR primers used herein are listed below.

[3] = tested on: TRAF6 and TRAF3 polyubiquitylation in BM-DCs; experiment: Ubiquitylation assay of TRAF6 and TRAF3; details: 30 minutes LPS, 2-hour prior incubation with Gas6
Protocol: For ubiquitylation assays, 5×10^6 BM-DCs per condition were harvested in PBS containing 1% SDS and boiled for 5 minutes. PBS containing 1% Triton X-100, 1 mM DTT, 1 mM Na3VO4, 5 mM NaF and protease inhibitors (Complete, Roche) was added and the mixture was sonicated. Lysates were precleared for 1 hour by incubation with Immobilized rProteinA (RepliGen) and incubated overnight with primary antibody at 4° C. Immobilized rProteinA was added for the last 2 hours. The immunoprecipitates were washed in PBS containing 0.2% NP-40 and 0.5 M LiCl and resuspended and boiled in NuPage LDS sample buffer (Invitrogen) with 100 μM DTT.

[4] = tested on: IRF-7 and IFI-204 mRNA in DCs; experiment: Q-PCR of IRF-7 and IFI-204 mRNA in DCs; details: BM-DCs, addition of Gas6 alone
Protocol: as §1, §2

[5] = tested on: p38 and ERK1/2 phosphorylation in BM-DCs; experiment: Immunoblot of TLR-induced MAP kinase activation (phospho-p38, phospho-ERK1/2)
Protocol: as §1
(§3) DCs were washed in PBS and harvested in NuPage LDS sample buffer (Invitrogen) with 100 μM DTT. Whole cell lysates were resolved by electrophoresis, proteins were transferred to a PVDF membrane (Immobilon P, Millipore), blocked in 3% BSA/TBS-Tween-20 and probed with the indicated antibodies. For fluorescent western blotting with the Odyssey system, proteins were transferred to an Immobilon-FL PVDF membrane (Millipore) and incubated with two primary antibodies in 0.1% casein/PBS-Tween-20. Following incubation with fluorescence-labeled secondary antibodies, membranes were scanned with the Odyssey imaging system (LI-COR).

[6] = tested on: IRAK-M, SHIP, ATF-3, IRF-4, Triad3A and Tollip mRNA in BM-DCs; experiment: Q-PCR of other negative regulators of TLR signaling; details: following TAM receptor activation with 50 nM Gas6
Protocol: as §1, §2

DCs = experiment: DC viability after Gas6 treatment
[7] = tested on: IκBα and IκBβ degradation (NF-κB pathway) in BM-DCs; experiment: Quantitative Li-Cor Odyssey Western blot of TLR-induced IκB degradation
Protocol: as §1, §3

[8] = tested on: phospho-STAT1 (Y701), phospho-STAT2, phospho-STAT3 in DCs; experiment: Immunoblot of STAT phosphorylation in DCs
Protocol: as §1, §3

[9] = poly I:C, prior treatment with Gas6

Substance: Gas6: murine recombinant Gas6 (R&D Systems), TAM receptor ligand/agonist
- LPS-induced production of IL-6 ([1]; Ifnar−/− DCs, Gas6): unable to inhibit
- expression of IL6 triggered by LPS or CpG ([1]; STAT1−/− DCs, 50 nM Gas6, 15 hours): not inhibited
- poly I:C-induced Type I IFN ([1]; TLR3 activated by poly I:C, 15 hours, 50 nM Gas6): comparable Gas6-mediated inhibition
- LPS-induced IL6 and TNFα production ([1]; TLR4 activated by LPS, 15 hours, 50 nM Gas6): comparable Gas6-mediated inhibition
- TLR9-induced production of Type I IFNs, IL6, and TNFα ([1]; wild-type DCs, overnight (15 hours) co-incubation with CpG, 50 nM Gas6): substantially inhibited
- SOCS3 mRNA peak expression ([2]; BM-DCs, 50 nM Gas6, around 90 minutes): approximately 10 fold
- SOCS1 expression ([2]; Ifnar−/− DCs, Gas6): unable to up-regulate
- Gas6-mediated induction of SOCS1 mRNA ([2]; STAT1−/− DCs): completely abolished
- Gas6 induction of SOCS3 mRNA ([2]; STAT1−/− DCs): substantially reduced
- SOCS1 mRNA expression increase ([2]; WT BM-DCs, 50 nM Gas6, 120 minutes): approximately 10 fold
- LPS-induced polyubiquitylation of TRAF6 and TRAF3 [3]: potently inhibited
- induction of IRF-7 and IFI-204 [4]: not induced
- CpG-induced phosphorylation of p38 and ERK1/2 ([5]; 1 μM CpG, 2-hour prior incubation with ligand): completely blocked
- activation of p38 and ERK1/2 as a consequence of TLR4 ligation ([5]; LPS, prior incubation with Gas6): inhibited
- Activation of the MAP kinase pathway by TLR3 [5, 9]: inhibited
- induction of IRAK-M, SHIP, ATF-3, IRF-4, Triad3A, Tollip mRNAs [6]: none of these mRNAs displayed significant induction
- DC viability (DCs): unaffected
- CpG-induced degradation of IκBα and IκBβ ([7]; BM-DCs, prior incubation with ligand): completely blocked
- kinetics and magnitude of CpG-induced degradation of IκBα and IκBβ ([7]; in the presence of cycloheximide or actinomycin D): the same, irrespective of the presence or absence of Gas6
- Activation of the NF-κB pathway by TLR3 [7, 9]: inhibited
- activation of STAT2 and 3 ([8]; DC cultures, addition of Gas6): not detected
- STAT1 tyrosine phosphorylation ([8]; Ifnar−/− BM-DCs, Gas6 application): incapable of activating STAT1
- STAT1 activation (phospho-STAT1 Y701) ([8]; TAM triple mutant DCs, Gas6): not seen
- STAT1 activation (phospho-STAT1 Y701) ([8]; wild-type DCs, incubation with Gas6): activated
